ChEMBL document CHEMBL3046134, “Synthesis and antiviral activity of benzimidazolyl- and triazolyl-1,3,5-triazines” (Med Chem Res, 2012)
In brackets after ≈: the same amount, converted by molar mass.

What was measured:
Human alphaherpesvirus 1 = test: Antiviral activity against Human herpesvirus 1 infected African green monkey Vero cells assessed as protection against virus-induced cytopathic effect after 3 days by plaque reduction assay; format: functional, organism-based; settings: Human alphaherpesvirus 1, Vero, 72 h
[1] = Cytotoxicity against Chlorocebus aethiops (African green monkey) Vero cells assessed as cell viability after 3 days by Alamar blue assay; format: cell-based; settings: chlorocebus sabaeus
[2] = Selectivity index, ratio of CC50 for african green monkey Vero cells to EC50 for HSV1 infected in African green monkey Vero cells

Row | Compound | EC50 (Human alphaherpesvirus 1) [µg/mL] | CC50 at 72 h [1] [µg/mL] | Ratio CC50/EC50 [2]
1 | Cc1ccc2[nH]c(SCc3nc(N)nc(Nc4ccccc4C)n3)nc2c1 | > 10 |  | 
2 | COc1ccc(Nc2nc(N)nc(CSc3nnc(-c4ccccc4)n3-c3ccccc3)n2)cc1 | > 10 |  | 
3 | Cc1ccccc1Nc1nc(N)nc(CSc2nnc(-c3ccccc3)n2-c2ccccc2)n1 | 7.5 (≈ 16.1 µM) | 1750 (≈ 3750 µM) | 234
4 | COc1ccc(Nc2nc(N)nc(CSc3nnc(-c4ccncc4)n3-c3ccccc3)n2)cc1 | 7 (≈ 14.5 µM) | 1500 (≈ 3100 µM) | 215
5 | Cc1ccccc1Nc1nc(N)nc(CSc2nnc(-c3ccncc3)n2-c2ccccc2)n1 | 6 (≈ 12.8 µM) | 1650 (≈ 3530 µM) | 275
6 | COc1ccc(Nc2nc(N)nc(CSc3nnc(-c4ccccc4)n3/N=C/c3ccccc3)n2)cc1 | 8 (≈ 15.7 µM) | 1500 (≈ 2940 µM) | 188
7 | Cc1ccccc1Nc1nc(N)nc(CSc2nnc(-c3ccccc3)n2/N=C/c2ccccc2)n1 | 3.5 (≈ 7.09 µM) | 1250 (≈ 2530 µM) | 358
8 | Cc1ccccc1Nc1nc(N)nc(CSc2nnc(-c3ccccc3)n2/N=C/c2ccc(Br)cc2)n1 | 5 (≈ 8.73 µM) | 1500 (≈ 2620 µM) | 300
9 | Nc1nc(CSc2nc3ccccc3[nH]2)nc(Nc2ccccc2)n1 | > 10 |  | 
10 | Cc1ccc(Nc2nc(N)nc(CSc3nc4ccccc4[nH]3)n2)cc1 | > 10 |  | 
11 | Nc1nc(CSc2nc3ccccc3[nH]2)nc(Nc2ccc(Cl)cc2)n1 | 8.5 (≈ 22.1 µM) | 1500 (≈ 3910 µM) | 175
12 | COc1ccc(Nc2nc(N)nc(CSc3nc4ccccc4[nH]3)n2)cc1 | > 10 |  | 
13 | Cc1ccccc1Nc1nc(N)nc(CSc2nc3ccccc3[nH]2)n1 | 9 (≈ 24.8 µM) | > 2000 | 
14 | Cc1ccc2[nH]c(SCc3nc(N)nc(Nc4ccccc4)n3)nc2c1 | > 10 |  | 
15 | Cc1ccc(Nc2nc(N)nc(CSc3nc4cc(C)ccc4[nH]3)n2)cc1 | > 10 |  | 
16 | Nc1nc2c(ncn2COCCO)c(=O)[nH]1 [ACYCLOVIR] | 1.5 (≈ 6.66 µM) | 1280 (≈ 5660 µM) | 850
